Tests used:
Assay in all cases: relative viability (nuclei count vs DMSO), 5 days (fraction); higher = more cells survive
[1] = compound: CO[C@@H]1[C@H](N(C)C(=O)c2ccccc2)C[C@H]2O[C@]1(C)n1c3ccccc3c3c4c(c5c6ccccc6n2c5c31)C(=O)NC4 [Midostaurin] + Cc1nc(NC(=O)N2CCC[C@H]2C(N)=O)sc1-c1ccnc(C(C)(C)C(F)(F)F)c1 [Alpelisib] (partner 2 µM)
How it was run: (§1)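 Values are medians from duplicate plates. Each reflects relative viability, defined as the nuclei count of treated wells over that of vehicle wells. Lung cancer cell lines in 1536-well plates were pin-tool dosed one day after seeding with one drug alone or with a fixed anchor-drug dose plus five library-drug doses (not always all listed) in √10 steps, then fixed, stained and imaged at 4× after 5 days.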

[2] = compound: CO[C@@H]1[C@H](N(C)C(=O)c2ccccc2)C[C@H]2O[C@]1(C)n1c3ccccc3c3c4c(c5c6ccccc6n2c5c31)C(=O)NC4 [Midostaurin] + Nc1nc2[nH]cc(CCc3ccc(C(=O)N[C@@H](CCC(=O)O)C(=O)O)cc3)c2c(=O)[nH]1 [Pemetrexed] (partner 0.2 µM)
How it was run: as §1

[3] = compound: CO[C@@H]1[C@H](N(C)C(=O)c2ccccc2)C[C@H]2O[C@]1(C)n1c3ccccc3c3c4c(c5c6ccccc6n2c5c31)C(=O)NC4 [Midostaurin] + O=C(c1cc(Cc2n[nH]c(=O)c3ccccc23)ccc1F)N1CCN(C(=O)C2CC2)CC1 [Olaparib] (partner 8 µM)
How it was run: as §1

[4] = compound: COc1cc(-c2nn([C@H]3CC[C@H](N4CCN(C(C)=O)CC4)CC3)c3ncnc(N)c23)ccc1NC(=O)c1cc2ccccc2n1C + C[C@]1(O)C[C@@H](c2nc(-c3ccc4ccc(-c5ccccc5)nc4c3)c3c(N)nccn32)C1 [Linsitinib] (partner 1 µM)
How it was run: as §1

[5] = compound: COc1cc(-c2nn([C@H]3CC[C@H](N4CCN(C(C)=O)CC4)CC3)c3ncnc(N)c23)ccc1NC(=O)c1cc2ccccc2n1C + O=C(c1cc(Cc2n[nH]c(=O)c3ccccc23)ccc1F)N1CCN(C(=O)C2CC2)CC1 [Olaparib] (partner 8 µM)
How it was run: as §1

Row | Cell Line | relative viability ([1]; first compound 0.01 µM) | relative viability ([1]; first compound 0.03162 µM) | relative viability ([1]; first compound 0.1 µM) | relative viability ([1]; first compound 0.3162 µM) | relative viability ([2]; first compound 0.01 µM) | relative viability ([2]; first compound 0.03162 µM) | relative viability ([2]; first compound 0.1 µM) | relative viability ([2]; first compound 0.3162 µM) | relative viability ([3]; first compound 0.01 µM) | relative viability ([3]; first compound 0.03162 µM) | relative viability ([3]; first compound 0.1 µM) | relative viability ([3]; first compound 0.3162 µM) | relative viability ([4]; first compound 0.0128 µM) | relative viability ([4]; first compound 0.04048 µM) | relative viability ([4]; first compound 0.128 µM) | relative viability ([4]; first compound 1.28 µM) | relative viability ([5]; first compound 0.0128 µM) | relative viability ([5]; first compound 0.04048 µM) | relative viability ([5]; first compound 0.128 µM) | relative viability ([5]; first compound 1.28 µM)
1 | HCC-44 | 0.831 | 0.837 | 0.761 | 0.607 | 0.604 | 0.628 | 0.657 | 0.663 | 0.999 | 0.957 | 0.983 | 1 | 0.764 | 0.687 | 0.692 | 0.536 | 1.1 | 1.09 | 0.916 | 1.27
2 | HCC-827 | 0.984 | 1 | 0.948 | 1.02 | 0.249 | 0.251 | 0.241 | 0.255 | 0.582 | 0.628 | 0.589 | 0.654 | 0.957 | 1.02 | 0.958 | 0.995 | 0.657 | 0.572 | 0.574 | 0.48
3 | NCI-H2347 | 0.995 | 0.988 | 0.964 | 0.992 | 0.459 | 0.416 | 0.417 | 0.405 | 0.602 | 0.54 | 0.424 | 0.519 | 0.949 | 0.856 | 0.961 | 1.09 | 0.561 | 0.597 | 0.56 | 0.505
4 | PC-14 | 0.827 | 0.896 | 0.891 | 0.785 | 0.123 | 0.125 | 0.118 | 0.111 | 0.328 | 0.281 | 0.206 | 0.199 | 0.929 | 1.01 | 0.938 | 0.98 | 0.231 | 0.349 | 0.283 | 0.343
5 | NCI-H1651 | 1.17 | 0.92 | 0.935 | 0.902 | 0.626 | 0.53 | 0.618 | 0.675 | 0.199 | 0.2 | 0.169 | 0.17 | 0.879 | 1.11 | 0.871 | 0.638 | 0.19 | 0.177 | 0.205 | 0.165
6 | HARA | 0.794 | 0.795 | 0.724 | 0.864 | 0.225 | 0.309 | 0.222 | 0.239 | 0.786 | 0.842 | 0.644 | 0.752 | 1 | 0.873 | 0.891 | 0.62 | 0.873 | 0.923 | 0.78 | 0.445
7 | NCI-H1650 |  |  |  |  | 0.315 | 0.415 | 0.322 | 0.3 | 0.945 | 0.793 | 0.727 | 0.703 |  |  |  |  | 0.822 | 0.894 | 0.804 | 0.731
8 | NCI-H1395 | 1.09 | 1.08 | 1.3 | 1.22 | 0.791 | 1.09 | 0.748 | 0.846 | 0.44 | 0.468 | 0.454 | 0.465 | 0.965 | 1.21 | 0.916 | 0.768 | 0.437 | 0.466 | 0.442 | 0.434
9 | LU99A | 0.437 | 0.457 | 0.396 | 0.387 | 0.182 | 0.165 | 0.167 | 0.224 | 0.261 | 0.295 | 0.257 | 0.207 | 0.555 | 0.563 | 0.543 | 0.524 | 0.284 | 0.29 | 0.286 | 0.263
10 | NCI-H1355 | 0.827 | 0.788 | 0.748 | 0.814 | 1.04 | 1.07 | 1.14 | 1.09 | 0.777 | 0.78 | 0.77 | 0.68 | 0.997 | 0.867 | 0.918 | 0.818 | 0.798 | 0.831 | 0.756 | 0.684
11 | HCC-78 | 0.413 | 0.305 | 0.358 | 0.296 | 0.926 | 0.857 | 0.946 | 0.865 | 0.836 | 0.753 | 0.677 | 0.511 | 0.573 | 0.643 | 0.513 | 0.436 | 0.938 | 0.933 | 0.768 | 0.456
12 | NCI-H1563 | 1.09 | 1.07 | 0.907 | 0.78 | 0.681 | 0.748 | 0.749 | 0.809 |  |  |  |  | 1.24 | 1.12 | 1.31 | 0.903 |  |  |  | 
13 | HCC-15 | 0.944 | 0.838 | 0.954 | 0.925 | 0.22 | 0.229 | 0.238 | 0.199 | 0.747 | 0.734 | 0.678 | 0.641 | 0.922 | 0.807 | 0.815 | 0.662 | 0.745 | 0.77 | 0.719 | 0.651
14 | EKVX | 0.968 | 0.813 | 0.814 | 0.824 | 0.514 | 0.349 | 0.379 | 0.404 | 0.836 | 0.847 | 0.738 | 0.775 | 1.2 | 1.12 | 0.918 | 0.499 | 1.01 | 0.972 | 0.774 | 0.409
15 | NCI-H2087 | 1.2 | 0.978 | 1.05 | 1.06 | 0.701 | 0.665 | 0.66 | 0.658 | 0.585 | 0.539 | 0.635 | 0.608 | 1.1 | 0.875 | 1.12 | 1.11 | 0.644 |  | 0.616 | 0.722
16 | LK-2 | 1.09 | 1.48 | 1.11 | 1.05 | 0.265 | 0.262 | 0.299 | 0.342 | 0.686 | 0.612 | 0.878 | 0.791 | 0.554 | 0.522 | 0.461 | 0.231 | 0.779 | 0.674 | 0.6 | 0.385

— the supplement of paper PMC10307832
